In ChEMBL document CHEMBL1212713, “Molecular docking and ligand specificity in fragment-based inhibitor discovery” (Nat Chem Biol, 2009):
Calls of active or inactive are those of the source.

Test: Inhibition of beta lactamase CTX-M assessed as hydrolysis of beta lactam by spectrometry analysis
For `O=C1C[C@H](S(=O)(=O)O)c2ccccc2C1=O`, the Ki was 700 µM. In the case of `Nc1sc2c(c1-c1nn[nH]n1)CCCC2`, the Ki is reported as 3000 µM. `O=C(Nc1cccc(-c2nn[nH]n2)c1)[C@H](Sc1ccccc1)c1ccccc1` showed a Ki of 12 µM. In the case of `c1ccc(COc2cccc(-c3nn[nH]n3)c2)cc1`, the Ki is reported as 1000 µM. `O=C(O)CN1C(=O)O[C@@H](c2ccccc2)C1=O` gave a Ki of 700 µM. `O=C1C=C(S(=O)(=O)O)c2ccccc2C1=O` showed a Ki of 1000 µM. Compound `Cn1cc(C(=O)Nc2cccc(-c3nn[nH]n3)c2)c2ccccc21` has a Ki of 10 µM.

Test: Inhibition of beta lactamase AmpC assessed as hydrolysis of beta lactam by spectrometry analysis
With `O=C(O)CN1C(=O)O[C@@H](c2ccccc2)C1=O` the Ki was 3500 µM.

Test: Inhibition of beta lactamase CTX-M assessed as hydrolysis of beta lactam up to 5 mM by spectrometry analysis
With `NS(=O)(=O)c1cccc(C(=O)O)c1` the inhibition was “inactive”. In the case of `O=C(O)c1cccc(-c2nc3ccccc3[nH]2)c1`, the inhibition is reported as “inactive”. In the case of `O=C1NC(=O)[C@H](Nc2ccccc2C(=O)O)S1`, the inhibition is reported as “inactive”. In the case of `O=C(O)c1ccc(Cl)c(N2C(=O)c3ccccc3C2=O)c1`, the inhibition is reported as “inactive”. In the case of `O=C(O)c1c[nH]c(=O)[nH]c1=O`, the inhibition is reported as “inactive”. With `O=C(O)Cc1ccc(C(=O)c2cccs2)s1` the inhibition was “inactive”. In the case of `CC(=O)Nc1ccc(OS(=O)(=O)c2cccc(C(=O)O)c2)cc1`, the inhibition is reported as “inactive”. In the case of `Cc1cc(C(=O)Nc2ccc(CC(=O)O)cc2)c(C)o1`, the inhibition is reported as “inactive”. For `O=C1C=C(O)[C@@H](C(=O)O)[C@H](c2ccccc2)C1`, the inhibition was “inactive”. For `C[C@@H]1C[C@H](C)CN(S(=O)(=O)c2cccc(C(=O)O)c2)C1`, the inhibition was “inactive”. In the case of `O=C1C=CC(=O)[C@@H]2CC=C[C@@H](C(=O)O)[C@H]12`, the inhibition is reported as “inactive”. With `Cc1cc(C)cc(N2C[C@@H](C(=O)O)CC2=O)c1` the inhibition was “inactive”. In the case of `O=C(O)c1n[nH]c2c1CCC2`, the inhibition is reported as “inactive”. With `O=C(O)C1CC(O)CN1` (configuration not stated) the inhibition was “inactive”. With `O=C(O)/C=C/c1ccc(O)c(O)c1` the inhibition was “inactive”. For `O=C1C[C@H](C(=O)O)c2ccccc21`, the inhibition was “inactive”. In the case of `O=C(O)c1ccc(=O)[nH]n1`, the inhibition is reported as “inactive”. For `O=C(O)C[C@@H]1NC(=O)[C@H](Cc2ccccc2)NC1=O`, the inhibition was “inactive”. In the case of `CCC(=O)Nc1ccccc1C(=O)C(=O)O`, the inhibition is reported as “inactive”. In the case of `O=C(O)Cc1cc(=O)[nH]c2ccccc12`, the inhibition is reported as “inactive”. In the case of `O=C(O)c1sc(C(=O)O)c(-c2ccco2)c1-c1ccco1`, the inhibition is reported as “inactive”. For `Cc1ccc(NC(=O)/C=C/C(=O)O)cc1`, the inhibition was “inactive”. For `O=C(O)c1ccc(=O)oc1`, the inhibition was “inactive”. In the case of `C=C(CC)N/N=C1\NC(=O)[C@H](CC(=O)O)S1`, the inhibition is reported as “inactive”. For `O=C(O)c1cn(S(=O)(=O)c2ccccc2)c2ccccc12`, the inhibition was “inactive”. With `O=C(O)c1cccc(S(=O)(=O)Nc2ccccn2)c1` the inhibition was “inactive”. In the case of `O=C(O)c1cnc(O)cc1O`, the inhibition is reported as “inactive”. For `O=C(O)CN1C(=O)c2ccc(F)cc2C1=O`, the inhibition was “inactive”. With `C[C@H]1Cc2ccccc2N1C(=O)CSc1nnnn1C1CCCC1` the inhibition was “inactive”. In the case of `Cc1cc(C)c2nc(CC(=O)O)[nH]c2c1`, the inhibition is reported as “inactive”. With `CCCOc1ccc([C@H](CC(=O)O)NC(=O)c2ccc(F)cc2)cc1` the inhibition was “inactive”. For `O=C(Nc1nncs1)c1ccccc1O`, the inhibition was “inactive”. In the case of `CCOC(=O)c1c(C(=O)O)[nH]c(C(=O)OCc2ccccc2)c1C`, the inhibition is reported as “inactive”. In the case of `O=C(O)CNC(=O)c1cccc2ccccc12`, the inhibition is reported as “inactive”. For `O=C(O)Cn1cnc2ccccc21`, the inhibition was “inactive”. In the case of `O=C(O)c1cccc(OCc2cn3ccccc3n2)c1`, the inhibition is reported as “inactive”. In the case of `CC(=O)Nc1sccc1C(=O)O`, the inhibition is reported as “inactive”. For `C[C@@H](Oc1cc(O)c2c(=O)cc(-c3ccccc3)oc2c1)C(=O)O`, the inhibition was “inactive”. For `Cc1oncc1C(=O)O`, the inhibition was “inactive”. In the case of `O=C(O)CC(=O)Nc1ccccc1`, the inhibition is reported as “inactive”. With `C[C@H]1CCc2n[nH]c(C(=O)O)c2C1` the inhibition was “inactive”. In the case of `O=C(O)[C@@H]1CNC(Cc2ccc(Cl)cc2)=N1`, the inhibition is reported as “inactive”. For `O=C(O)[C@@H]1C(=O)NC[C@H]1c1ccccc1`, the inhibition was “inactive”. With `O=C(O)C[C@@H]1C(=O)NC(=S)N1c1ccccc1` the inhibition was “inactive”. For `Cc1onc(C(N)=O)c1C(=O)Nc1nccs1`, the inhibition was “inactive”. In the case of `Cc1cc(O)nc(O)c1C(=O)O`, the inhibition is reported as “inactive”. In the case of `Cc1ccc(-n2nc(C(N)=O)c(=O)cc2C)cc1`, the inhibition is reported as “inactive”. In the case of `O=C(O)[C@@H]1C[C@H]1C(=O)N1CCc2ccccc21`, the inhibition is reported as “inactive”. With `O=C(O)c1cc(=O)c2cc(F)ccc2o1` the inhibition was “inactive”. With `O=C(O)[C@H]1[C@H](C(=O)NCCO)[C@H]2C=C[C@H]1C2` the inhibition was “inactive”. In the case of `O=C(O)Cc1ccccc1O`, the inhibition is reported as “inactive”. In the case of `O=C(O)c1cccc(COc2ccc(CO)cc2)c1`, the inhibition is reported as “inactive”. In the case of `Cc1[nH]c(C(=O)O)c(C)c1[C@H](C)O`, the inhibition is reported as “inactive”. For `O=C(O)C[C@H](C(=O)NCc1ccccc1)c1ccccc1`, the inhibition was “inactive”. For `O=C(O)[C@H]1C[C@H](O)CN1Cc1ccccc1`, the inhibition was “inactive”. For `O=C(O)c1cc(=O)cc2n1CCNC2=O`, the inhibition was “inactive”. For `Cc1ccc(N[C@H](CC(=O)c2ccccc2)C(=O)O)cc1C`, the inhibition was “inactive”. In the case of `Cc1ccccc1C(=O)N[C@@H](C)C(=O)O`, the inhibition is reported as “inactive”. With `CS(=O)(=O)c1cccc(C(=O)O)c1` the inhibition was “inactive”. In the case of `O=C(O)c1cccc(N2C(=O)c3ccc(Br)cc3C2=O)c1`, the inhibition is reported as “inactive”. With `O=C(CC1=NO[C@H](c2ccccc2O)N1)N1CCCC1` the inhibition was “inactive”. With `O=C(O)c1cccc(S(=O)(=O)Nc2ccccc2O)c1` the inhibition was “inactive”. With `Cc1ccoc1C(=O)NCc1occc1C(=O)O` the inhibition was “inactive”. With `C[C@H](NC(=O)c1ccccc1Cl)C(=O)O` the inhibition was “inactive”. For `O=C(O)[C@H]1CC(=O)N(C2CCCC2)C1`, the inhibition was “inactive”. With `CC(=O)c1c(O)c(C(=O)O)c(C)oc1=O` the inhibition was “inactive”. With `O=C1C=CC(=O)C(c2cccc(C(=O)O)c2)=C1` the inhibition was “inactive”. For `Cc1ccc(C(=O)NCC(=O)O)s1`, the inhibition was “inactive”. For `Cc1ccc(NC(=O)[C@H]2CCC(=O)N2)c(C)c1`, the inhibition was “inactive”. With `N#Cc1ccsc1NC(=O)c1ccccn1` the inhibition was “inactive”. With `O=C(O)C[C@@H](NC(=O)c1ccccc1F)c1ccc2c(c1)OCO2` the inhibition was “inactive”. For `O=C(O)CSc1nc(O)cc(O)n1`, the inhibition was “inactive”. In the case of `CC(C)(C)c1ccc([C@@H](CC(=O)O)NC(=O)c2ccccc2F)cc1`, the inhibition is reported as “inactive”. With `O=C(O)c1ccccc1C(=O)c1ccc2c(c1)CCC2` the inhibition was “inactive”. With `O=C(O)/C=C/c1ccc(O)cc1` the inhibition was “inactive”. With `O=C(O)c1ccccc1N[C@H](C(=O)O)c1ccccc1` the inhibition was “inactive”. With `Cc1ccc(NC(=O)CSc2nnc(CCC(=O)O)c(=O)[nH]2)cc1` the inhibition was “inactive”. In the case of `O=C(Nc1nncs1)c1ccccc1F`, the inhibition is reported as “inactive”. For `C[C@@H](NC(=O)CNC(=O)CN)C(=O)O`, the inhibition was “inactive”. In the case of `O=C(O)c1ccnc([C@@H]2CCCCC2=O)c1`, the inhibition is reported as “inactive”. In the case of `COc1ccc(C(=O)O)cc1S(=O)(=O)N1CCCCCC1`, the inhibition is reported as “inactive”. With `O=C(O)C[C@H](NO)c1ccccc1` the inhibition was “inactive”. In the case of `Cc1cc(C)cc(NC(=O)N(CCC(=O)O)Cc2ccccc2)c1`, the inhibition is reported as “inactive”. In the case of `Cc1oc(S(=O)(=O)N2CCCCC2)cc1C(=O)O`, the inhibition is reported as “inactive”. With `Cc1cc(C(=O)NCc2oc(C(C)(C)C)cc2C(=O)O)c(C)o1` the inhibition was “inactive”. In the case of `O=C(O)[C@@H](Cc1ccco1)P(=O)(O)CN1CCOCC1`, the inhibition is reported as “inactive”. With `O=CNc1ccccc1C(=O)O` the inhibition was “inactive”. In the case of `CC(=O)Nc1nc(C(=O)O)cs1`, the inhibition is reported as “inactive”. In the case of `CC(=O)Nc1ccc(Sc2ccccc2C(=O)O)c(C(=O)O)c1`, the inhibition is reported as “inactive”. With `C=C1C(=O)OC=C1C(=O)O` the inhibition was “inactive”. For `CC(=O)NCC(=O)O`, the inhibition was “inactive”. In the case of `CC(=O)C1=C(O)C(O)N([C@@H](C)C(=O)O)[C@H]1c1ccccc1` (some centres not stated), the inhibition is reported as “inactive”. In the case of `O=C(O)[C@@H]1C[C@@H](C(=O)O)N1`, the inhibition is reported as “inactive”. With `O=C(O)c1ccc(Cl)c(N2CCCC2=O)c1` the inhibition was “inactive”.

Test: Inhibition of beta lactamase CTX-M assessed as hydrolysis of beta lactam at 250 uM by spectrometry analysis
For `Cc1nc2cc(C(=O)Nc3cccc(-c4nn[nH]n4)c3)ccc2n1-c1ccccc1`, the inhibition was “Active”. For `O=C(Nc1cccc(-c2nn[nH]n2)c1)[C@H](Sc1ccccc1)c1ccccc1`, the inhibition was “Active”. For `CC(=O)Nc1cc(NC(C)=O)cc(C(=O)Nc2cccc(-c3nn[nH]n3)c2)c1`, the inhibition was “Active”. For `O=C(Nc1cccc(-c2nn[nH]n2)c1)c1csc2c1CCCC2`, the inhibition was “Active”. For `Cn1cc(C(=O)Nc2cccc(-c3nn[nH]n3)c2)c2ccccc21`, the inhibition was “Active”.
